Our source for the CC50, IC50 and logP values is ChEMBL document CHEMBL1130888, “Synthesis and anti-HIV activities of symmetrical N1,N3-dibenzyl-2-hydroxy-propane derivatives” (Bioorg Med Chem Lett, 1998).

Data set [1] concerns MT4. As to the kind of experiment: Cytotoxicity was evaluated against uninfected MT-4 cells. To be noted: Homo sapiens. Format: functional.
Data set [2] concerns MT4. The experiment in a line: Inhibitory activity against syncytia formation in HIV-infected MT-4 cells was evaluated. Format: functional, cell-based. To be noted: Homo sapiens.
Data set [3] is described as follows: Partition coefficient (logP). Format: physicochemical. To be noted: octanol/water.
For data set [4], the system named is MT4. The experiment in a line: Inhibitory activity against syncytia formation in HIV-infected MT-4 cells was evaluated; Inactive. The format is functional, cell-based, Homo sapiens.
The subject of data set [5] is MT4. The experiment in a line: Inhibitory activity against syncytia formation in HIV-infected MT-4 cells was evaluated; 1-10 uM. Format: functional, cell-based. The settings on record: Homo sapiens.

In the case of `O=C(NCc1ccccc1)N(Cc1ccccc1)CC(O)CN(Cc1ccccc1)C(=O)NCc1ccccc1`, the CC50 in data set [1] was above 100 µM. The molecule further had an IC50 in data set [2] of 0.1 µM. Besides, in data set [3] (read-out: logP), the logP was found to be 5.12.

For the molecule `CCCCCCCCOC(=O)N(Cc1ccccc1)CC(O)CN(Cc1ccccc1)C(=O)OCCCCCCCC`, the CC50 in data set [1] came to 50 µM. In data set [2], this molecule returned an IC50 of 10 µM. Moreover, the logP in data set [3] is recorded as 10.35.

Consider `CCOC(=O)N(Cc1ccccc1)CC(O)CN(Cc1ccccc1)C(=O)OCC`, for which the CC50 in data set [1] was found to be 50 µM. Moreover, the IC50 result in data set [4] was “Not Active”. In addition, in data set [3] (read-out: logP), the logP was 3.99.

`CC(C)(C)NC(=O)N(Cc1ccccc1)CC(O)CN(Cc1ccccc1)C(=O)NC(C)(C)C` displayed a CC50 in data set [1] above 100 µM. In data set [2], this molecule returned an IC50 of 1 µM. Besides, the logP in data set [3] (read-out: logP) is 4.12.

Molecule `CC(C)COC(=O)N(Cc1ccccc1)CC(O)CN(Cc1ccccc1)C(=O)OCC(C)C` registered a CC50 in data set [1] of 100 µM. In data set [2], this molecule yielded a half-inhibitory concentration (IC50) of 1 µM. In data set [3] (read-out: logP), the logP came out at 5.75.

Consider `O=C(OCc1ccccc1)N(Cc1ccccc1)CC(O)CN(Cc1ccccc1)C(=O)OCc1ccccc1`, for which the midpoint of cytotoxicity in data set [1], the CC50, lay at 10 µM. The IC50 in data set [2] is below 0.1 µM. Further, in data set [3] (read-out: logP), the logP amounted to 6.48.

Take `CC(C)(C)OC(=O)N(Cc1ccccc1)CC(O)CN(Cc1ccccc1)C(=O)OC(C)(C)C`: the CC50 in data set [1] was above 100 µM. Besides, in data set [3] (read-out: logP), the logP was found to be 5.39. This molecule also came in with an IC50 in data set [5] of 1 µM.

In turn, `O=C(N1CCOCC1)N(Cc1ccccc1)CC(O)CN(Cc1ccccc1)C(=O)N1CCOCC1` showed a CC50 in data set [1] of 100 µM. Also, the IC50 entry in data set [4] is given as “Not Active”. The logP in data set [3] (read-out: logP) was 0.04.

Molecule `O=C(OCC1CCCCO1)N(Cc1ccccc1)CC(O)CN(Cc1ccccc1)C(=O)OCC1CCCCO1` (stereo unspecified) gave a CC50 in data set [1] of 50 µM. The half-inhibitory concentration (IC50) entry in data set [4] was “Not Active”. The logP in data set [3] (read-out: logP) is 4.07.

Take `CN(C(=O)N(Cc1ccccc1)CC(O)CN(Cc1ccccc1)C(=O)N(C)c1ccccc1)c1ccccc1`: in data set [1], the CC50 was above 100 µM. This molecule yielded a concentration for half-maximal inhibition (IC50) in data set [2] of 1 µM. Moreover, the lipophilicity (logP) in data set [3] (read-out: logP) was 7.06.

`O=C(OC1CCOC1)N(Cc1ccccc1)CC(O)CN(Cc1ccccc1)C(=O)OC1CCOC1` (stereo unspecified) had a CC50 in data set [1] of 50 µM. For the same molecule, in data set [4], the IC50 result is “Not Active”. In data set [3] (read-out: logP), the logP was 2.48.

`O=C(OCC1CCCO1)N(Cc1ccccc1)CC(O)CN(Cc1ccccc1)C(=O)OCC1CCCO1` (stereo unspecified) displayed a CC50 in data set [1] of 50 µM. In addition, the IC50 result in data set [4] was “Not Active”. For the same molecule, the logP in data set [3] (read-out: logP) stood at 2.94.
